Measured values from article PMC9106635, “Stimulation of the atypical chemokine receptor 3 (ACKR3) by a small-molecule agonist attenuates fibrosis in a preclinical liver but not lung injury model” (Cellular and Molecular Life Sciences: CMLS, 2022).

What was measured:
[1] = molecular target: hACKR3 (Homo sapiens, UniProt P25106); test: CXCL12^AF647 competition binding, U87.CD4.ACKR3 cells
Experimental: Binding affinity to human (h)CXCR4 and human (h)ACKR3 was investigated with a competition binding assay using CXCL12^AF647 (Almac, UK) as the tracer molecule. Jurkat cells (human T lymphocytic cell line, hCXCR4 positive) or U87.CD4.ACKR3 cells (human glioblastoma cell line, hACKR3 positive) were resuspended in assay buffer [Hank’s Balanced Salt Solution (HBSS, Thermo Fisher Scientific), 20 mM HEPES buffer, 0.2% bovine serum albumin (Sigma-Aldrich), pH 7.4] at 3 × 10^5 cells per sample and treated with increasing concentrations of compound at RT for 15 min. A fixed amount of CXCL12^AF647 (2.9 nM and 1.45 nM in case of hCXCR4 and hACKR3, respectively) was added and cells were incubated at RT for 30 min protected from light. Cells were finally fixed in 1% paraformaldehyde in DPBS and the CXCL12^AF647 binding signal [i.e., mean fluorescence intensity (MFI)] was quantified by flow cytometry (FACSCanto™; Becton Dickinson). Data were analyzed with FlowJo® Software. For all samples the background MFI (i.e., autofluorescence of untreated and unlabeled cells) was subtracted. The percentage inhibition for each compound concentration was calculated relative to the positive control (i.e., untreated cells exposed to CXCL12^AF647 only). Four parameter non-linear curve fitting (GraphPad Prism 9.0.2) was used to determine the IC50 value for binding inhibition.

[2] = parameters: method as in PMID 29627981; conditions: cited from earlier work
[3] = tested on: bleomycin-induced lung fibrosis in C57BL/6J mice; test: Bleomycin-induced lung fibrosis model; format: in vivo, mouse; conditions: 15 mg/kg/dose SC BID, day 21, vs bleomycin + 23% HPBCD
Experimental: A preclinical mouse model for bleomycin-induced lung fibrosis was performed at the Department of Metabolic Health Research, The Netherlands Organisation for Applied Scientific Research (TNO) (Leiden, The Netherlands). Thirty-eight male C57BL/6J mice were matched on body weight prior to the study and divided into three groups (experimental study design, Supplementary Figure S1b). At day 0, 10–12-week-old mice received a single oropharyngeal administration of bleomycin (0.04U/mouse) (group 2 and 3). Control mice (group 1) received phosphate buffered saline (PBS) instead. At day 0, bleomycin-treated mice received either compound 18a (15 mg/kg/dose, subcutaneous, twice daily, group 3), or its corresponding vehicle control (23% HPBCD, subcutaneous, twice daily, group 2)]. PBS-treated mice received 23% HPBCD throughout the study (subcutaneous, twice daily, group 1). At day 21, mice were sacrificed under isoflurane anesthesia and plasma samples and lung lobes were collected. As a primary endpoint the histology lung fibrosis score (modified Ashcroft score) was used based on a Masson’s Trichrome staining on cross-sections of the left lung lobe. As a secondary endpoint collagen content (hydroxyproline) was analyzed on the medial and accessory lobes by using a chromogenic assay according to the manufacturer’s instructions (QuickZyme Biosciences, Leiden, the Netherlands).

[4] = tested on: fibrosis-associated genes (lung mRNA); test: qRT-PCR of fibrosis-associated genes in lung tissue; format: in vivo, mouse
Experimental: Total RNA was prepared from snap-frozen liver tissue (the lateral and medial right lobes and the caudate lobe; Supplementary Figure S1a) or lung tissue (cranial right lobe; Supplementary Figure S1b) after homogenization on ice in TRIZol. For quantitative qRT-PCR, cDNA was made from 0.5 μg of RNA using the GoScript reverse transcription system (Promega) according to the manufacturer’s protocol. QRT-PCR was performed (for 40 cycles) with the Quantstudio3 Applied Biosystems (ABI) system using Sybr green (ABI) followed by melting curve analysis. Expression was calculated using the delta threshold cycle (ΔCT) method with Gapdh as reference gene (previously validated as stable house-keeping gene in the CCl4 model and in the bleomycin model, current study, not shown). Forward (F) and reverse (R) primer sequences were (5’-3’): Gapdh: F: ccgcatcttcttgtgcagt, R: […]; Col1a1: F: […], R: […]; Ackr3: F: […], R: […]; Cxcr4: F: […], R: […]; Golm1: F: […], R: […]; Lgals3: F: […], R: […]; Unc93b1: F: […], R: […]; Slc15a3: F: […], R: […]; Sec24d: F: […], R: […]; Cxcl10: F: […], R: […]; and Clec4n: F: […], R: […]. Data are expressed as mean ± sem. […] The scaled counts were base log2-transformed and data were expressed as fold-change versus the reference condition (CCl4 + 23% HPBCD). […]

[5] = parameters: method as in PMID 29627981; conditions: mice; cited from earlier work

Chain of hACKR3 (P25106 whole entry): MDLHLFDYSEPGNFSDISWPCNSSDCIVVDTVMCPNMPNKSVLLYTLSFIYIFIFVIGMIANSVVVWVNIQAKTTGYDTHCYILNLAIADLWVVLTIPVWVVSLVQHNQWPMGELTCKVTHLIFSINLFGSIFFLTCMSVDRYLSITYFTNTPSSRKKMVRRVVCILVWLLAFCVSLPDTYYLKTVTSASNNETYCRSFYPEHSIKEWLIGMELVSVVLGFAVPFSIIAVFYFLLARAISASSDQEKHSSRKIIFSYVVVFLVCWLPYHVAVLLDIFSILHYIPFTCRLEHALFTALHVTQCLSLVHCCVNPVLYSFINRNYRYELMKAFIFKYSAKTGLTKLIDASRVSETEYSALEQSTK

## CCc1ccn2ccnc2c1N1CCCN(C(CC(N)=O)C2CCN(C(=O)C3CC4CCC3O4)CC2)CC1 (stereo not shown) [compound 18a]
[1]; hACKR3, mean ± SD of three independent experiments
  IC50: 20.5 ± 6.34 nM
[1]; ratio of IC50 values
  higher hACKR3 binding affinity compared to compound 18b: five-fold
[2]
  free fraction in mouse plasma: 34%
[3]
  development of lung fibrosis (modified Ashcroft score, hydroxyproline): did not counteract the development of fibrosis
[4]; bleomycin model, day 21, qRT-PCR
  Lgals3 expression in lung tissue: similarly lowered
[4]; bleomycin-exposed lungs, day 21
  number of these 8 genes similarly affected in lung: 1
[5]
  oral bioavailability: not orally bioavailable
